Measured values as given in patent US10928397B2, “Methods involving MenaINV in screening for inhibitors of cancer invasion and metastasis” (MASSACHUSETTS INSTITUTE OF TECHNOLOGY, priority 2012, dated 2021).
Entries after “also recorded” stand apart in the source; their conditions may differ.

Columns and labels:
MDA-MB231 cells [1] = test: EGF-stimulated lamellipodial (membrane) protrusion in MDA-MB231 cells; assay type: cell-based; settings: for lamellipodial protrusion 8 min post-stimulation: 0.5 nM EGF
Protocol: (§1) FIG. 2A-2G. Inhibition of PTP1b phenocopies expression of Mena^INV. (A) MDA-MB231 cells were serum starved for 4 h with addition of 10 μM PTP1b inhibitor (EMD Calbiochem) for the time indicated. Cells were then stimulated with 0.5 nM EGF and lamellipodial protrusion was measured 8 min post-stimulation. […] (G) Inhibition of PTP1b in vivo shifts the sensitivity of GFP-Control MTLn3 xenografted cells to 5 nM (a 5× increase in sensitivity). *p<0.05 and **p<0.01 by ANOVA and Tukey post-test.
FIG. 8A-8D: The activity of SHIP2 is not required for early stages of Mena^INV-induced lamellipodial protrusion. MDA-MB231 (A,B) and MTLn3 (C,D) cells were incubated for 4 h with 10 μM AS1949490 in serum-free medium. Cells were stimulated with 0.25 nM (A,B) or 0.5 nM (C,D) EGF and membrane protrusion was recorded 8 min. […]
In contrast, inhibition of PTP1b increased lamellipodial protrusion in MDA-MB231-GFP control cells in a time dependent manner in response to 0.5 nM EGF.

MTLn3 cells [2] = test: EGF-stimulated lamellipodial (membrane) protrusion in MTLn3 cells; assay type: cell-based
Protocol: as §1
FIG. 8A-8D: The activity of SHIP2 is not required for early stages of Mena^INV-induced lamellipodial protrusion. MDA-MB231 (A,B) and MTLn3 (C,D) cells were incubated for 4 h with 10 μM AS1949490 in serum-free medium. Cells were stimulated with 0.25 nM (A,B) or 0.5 nM (C,D) EGF and membrane protrusion was recorded 8 min.
What could account for the phenotypes associated with inclusion of the INV exon of Mena, that include: increased activation of EGFR and downstream EGFR-mediated, motility-specific signaling pathways, increased cell invasion, and decreased efficacy of tyrosine kinase inhibition? One route to aberrant signal amplification is dysregulation of control nodes within the protein network, such as phosphatases, that could lead to prolonged or amplified phosphorylation states. Identification of potential Mena and Mena^INV interacting partners that might affect phosphatase activity can shed light on this. Attempts were made at identification of Mena isoforms-specific interacting partners via mass spectrometric analysis. Several unsuccessful attempts to purify Mena interacting partners through a co-immunprecipitation and the mass spectrometric approach resulted. A bioinformatics screening approach was then used. A list of 38 human phosphatases was queried for potential Ena/VASP interaction motifs, with the hypothesis that an interaction between Mena^INV and a phosphatase important for attenuating growth factor responses could lead to increased signaling upon growth factor stimulation. […]

[3] = system: EGFR Y1173 phosphorylation in MDA-MB231 cells; test: EGFR Y1173 phosphorylation on PTP1b inhibition, semi-quantitative Western blotting; assay type: cell-based; settings: 0.25 nM EGF, 10 μM, 30 min preincubation
Protocol: (§2) FIG. 9A-9C: PTP1b inhibition increases EGFR pathway activation. MDA-MB231 cells expressing GFP-control or GFPMena^INV were serum starved for 4 h and stimulated with 0.25 nM EGF in the presence or absence of 10 μM PTP1b (30 min preincubation). Phosphorylation of EGFR on Y1173 was measured using semi-quantitative Western blotting (A, B) of quadruplicate lysates. […] MTLn3 cells were transiently transfected with a mCherry-tagged PHdomain biosensor targeting PI(4,5)P2, starved in L15 media, pre-incubated with 10 μM PTP1bi and then stimulated with 0.5 nM EGF.

MDA-MB231 cells [4] = test: In vitro invasion into collagen I gels; assay type: cell-based; settings: 0.25 or 0.5 nM EGF
[5] = system: xenograft tumors of MTLn3 cells; test: In vivo invasion assay (needle collection from xenograft tumors); parameters: species or system mouse
Protocol: An in vivo invasion assay was employed to determine the effect of decreased PTP1b activity on tumor cell chemotaxis. To mimic the in vitro invasion experiments, 50 μM PTP1b inhibitor was added to needles with 10% matrigel and varying concentrations of EGF, the needles inserted into xenograft tumors of MTLn3 cells expressing either GFP or GFP-Mena^INV and cells allowed to crawl into the needle during a 4 h period. Similar to the results obtained in vitro, addition of PTP1b inhibitor to needles used to collect cells had no effect on the number of cells ectopically expressing Mena^INV collected (FIG. 2G). However, PTP1b inhibition increased the sensitivity of control cells 5-fold, decreasing the concentration of EGF required for chemotaxis into the needles from 25 nM to 5 nM. In this assay the discrepancy between expression of Mena^INV and inhibition of PTP1b may be due to the time lag required for inhibitor efficacy.
However, viability of the mouse under anesthesia precludes collection of cells for longer periods than 4 h, therefore this effect is difficult to quantify.

MTLn3 cells [6] = test: PI(4,5)P2 hydrolysis, mCherry-tagged PH-domain biosensor (PLCγ activity); assay type: cell-based; settings: GFP-control MTLn3, 10 μM pre-incubation, 0.5 nM EGF, 3 min post-EGF, versus DMSO
Protocol: as §2

cells expressing MenaINV = test: Membrane protrusion after 1 nM EGF with increasing doses of Erlotinib; assay type: cell-based
Protocol: FIG. 6A-6D: Cells expressing MenaINV are resistant to EGFR targeted kinase inhibitors. [A] […] Data was combined to generate novel hypothesis regarding clinically-relevant treatment regimes for invasive breast cancer. […]. Membrane protrusion was quantified 8 min post-EGF/drug addition. *p<0.05, **p<0.01, ***p<0.001. […]. Cells were serum starved and then stimulated with EGF and drug for 3 min. Cells were lysed and the level of EGFR-pY1173 was determined by semi-quantitative Western Blot.
. To test this hypothesis, serum-starved cells were treated with 1.0 nM EGF and increasing doses of DMSO (carrier control) or Erlotinib and measured EGFR phosphorylation at 3 min post-stimulation (FIG. 6B). […]. […] Further, electron microscopy was performed using ultra-small gold particles to examine receptor distribution along the cell membrane to determine if increased clustering of the receptor might affect drug binding or signal propagation. However, no significant difference was found in receptor clustering in the analysis (FIG. 7).

mammary carcinoma cells = test: In vivo invasion of mammary carcinoma cells under Erlotinib
MET [7] = test: HGF-stimulated protrusion assay with MET inhibitor; assay type: cell-based; settings: +5 ng/ml HGF
Protocol: FIG. 11: Cell protrusion assays were performed in which starved carcinoma cells expressing GFP, GFP-Mena or GFP-Mena^INV were stimulated with different concentrations of hepatocyte growth factor (HGF) (analogously as done with EGF stimulation of EGFR) followed by a measurement of cell protrusion several minutes later. The HGF concentrations (x-axis) are nM and the Y-axis is increase in cell size (a reflection of protrusion) compared to unstimulated cells.

MET [8] = test: MET kinase activity in cells with MET inhibitor; assay type: cell-based

CCc1oc2cc(S(=O)(=O)Nc3ccc(S(=O)(=O)Nc4nccs4)cc3)ccc2c1C(=O)c1cc(Br)c(O)c(Br)c1 [PTP1b inhibitor]
lamellipodial protrusion 8 min post-stimulation (MDA-MB231 cells [1]; GFP-control cells, 10 μM, 30 min pre-incubation): complete phenocopy of Mena^INV-dependent responses; also recorded: significant increase in membrane protrusion
kinetics of protrusion (MDA-MB231 cells [1]; MDA-MB231-GFP control cells, 30 min pre-incubation): increased the kinetics of protrusion
membrane protrusion (MDA-MB231 cells [1]; MDA-MB231-GFP-Mena and GFP control cells, 0.25 nM EGF): increased membrane protrusion; also recorded: protrusion was increased
kinetics of protrusion (MDA-MB231 cells [1]; MDA-MB231-GFP-Mena^INV cells): without affecting the dynamics
membrane protrusion (MDA-MB231 cells [1]; MDA-MB231-GFP-Mena^INV cells, 0.25 nM EGF): no further increase was measured
membrane protrusion (MDA-MB231 cells [1]; cells expressing Mena^INV, 0.125 nM EGF (data not shown)): does not increase membrane protrusion
lamellipodial protrusion 8 min post-stimulation (MDA-MB231 cells [1]; cells expressing Mena^INV, 10 μM, 30 min pre-incubation): had no effect
membrane protrusion (magnitude and kinetics) (MTLn3 cells [2]; unmodified MTLn3 cells, EGF (0.5 nM, 5 nM elsewhere in the source)): increased the magnitude and kinetics of membrane protrusion; also recorded: significantly enhanced
EGFR Y1173 phosphorylation ([3]; GFP control cells): increases EGFR phosphorylation on Y1173; also recorded: increased EGFR Y1173 phosphorylation
EGFR Y1173 phosphorylation ([3]; GFP control cells, listed as PTP1bi): increased EGFR Y1173 phosphorylation
EGFR Y1173 phosphorylation ([3]; cells expressing Mena^INV): no additional affect
invasion into collagen I gels (MDA-MB231 cells [4]; MDA-MB231-GFP and -GFP-Mena): increased
invasion into collagen I gels (MDA-MB231 cells [4]; cells expressing Mena^INV): no significant effect
increase in sensitivity of control cells to EGF in vivo ([5]; GFP-control MTLn3 xenograft, 50 μM inhibitor in needles, 4 h): 5 fold
concentration of EGF required for chemotaxis into the needles with inhibitor ([5]; GFP-control MTLn3 xenograft, 50 μM inhibitor, 25 nM without inhibitor): 5 nM
number of cells collected into needles ([5]; MTLn3 cells ectopically expressing Mena^INV, 50 μM inhibitor): had no effect
PI(4,5)P2 hydrolysis (PLCγ activity) (MTLn3 cells [6]): increased PI(4,5)P2 hydrolysis
PI(4,5)P2 hydrolysis (PLCγ activity) (MTLn3 cells [6]; listed as PTP1bi): PLCγ activity is greater

C[C@H](NC(=O)c1sccc1OCc1ccc(Cl)cc1)c1ccccc1 [AS1949490]
membrane protrusion at 8 min post-EGF stimulation (MDA-MB231 cells [1]; MDA-MB231-GFP-Mena^INV, 10 μM for 4 h, 0.25 nM EGF): reduced the protrusion response; also recorded: decreased membrane protrusion to GFPcontrol levels
initial protrusion response (kinetics) (MDA-MB231 cells [1]; MDA-MB231-GFP-Mena^INV, 10 μM, 0.25 nM EGF, up to 3 min post-stimulation): still demonstrated the fast initial protrusion response
membrane protrusion at 8 min post-EGF stimulation (MTLn3 cells [2]; MTLn3-GFP-Mena^INV, 10 μM for 4 h, 0.5 nM EGF): reduced the protrusion response; also recorded: decreased membrane protrusion to GFPcontrol levels
initial protrusion response (kinetics) (MTLn3 cells [2]; MTLn3-GFP-Mena^INV, 10 μM, 0.5 nM EGF, up to 3 min post-stimulation): still demonstrated the fast initial protrusion response

C#Cc1cccc(Nc2ncnc3cc(OCCOC)c(OCCOC)cc23)c1 [Erlotinib]
drug required to decrease lamellipodial protrusion, Mena^INV cells compared to control GFP or Mena cells (cells expressing MenaINV; 1 nM EGF, 8 min post-EGF/drug addition): ten-fold more Erlotinib was required; also recorded: Significantly higher doses of Erlotinib (Tarceva) are required
efficacy after normalizing protrusion to the no-drug response of each cell line (cells expressing MenaINV; across cell lines (FIG. 6D)): roughly equivalent; also recorded: a common response across cell lines
in vivo invasion (mammary carcinoma cells; GFP-expressing mammary carcinoma cells): abrogates in vivo invasion
in vivo invasion (mammary carcinoma cells; cells that express Mena^INV): does not fully block invasion

Cc1[nH]c(/C=C2\C(=O)Nc3ccc(S(=O)(=O)N(C)c4cccc(Cl)c4)cc32)c(C)c1C(=O)N1CCN(C)CC1 [SU11274]
response of Mena^INV expressing cells in protrusion assay (MET [7]): resistant
response of Mena^INV expressing cells, MET kinase activity (MET [8]): resistant
